# In ChEMBL document CHEMBL4400506, “8-Hydroxy-2-(1H-1,2,3-triazol-1-yl)-1,4-naphtoquinone derivatives inhibited P2X7 Receptor-Induced dye uptake into murine Macrophages” (Bioorg Med Chem, 2019):
# Calls of active or inactive are those of the source. The rule behind the calls is not given here.
# Tests used:
# Peritoneal macrophage = assay: Cytotoxicity against Swiss Webster mouse peritoneal macrophages assessed as plasma membrane disruption at 100 uM measured after 24 hrs by dextran rhodamine dye based fluorescence assay; format: cell-based
# [1] = molecular target: T1, P2X purinoceptor 7 (Mus musculus) (UniProt Q9Z1M0); assay: Antagonist activity at P2X7R in Swiss Webster mouse peritoneal macrophages assessed as inhibition of ATP-induced propidium iodide uptake preincubated for 10 mins followed by ATP induction for 25 mins and subsequent propidium iodide addition for last 5 mins by fluorescence microscopic analysis
# T1 sequence (whole entry): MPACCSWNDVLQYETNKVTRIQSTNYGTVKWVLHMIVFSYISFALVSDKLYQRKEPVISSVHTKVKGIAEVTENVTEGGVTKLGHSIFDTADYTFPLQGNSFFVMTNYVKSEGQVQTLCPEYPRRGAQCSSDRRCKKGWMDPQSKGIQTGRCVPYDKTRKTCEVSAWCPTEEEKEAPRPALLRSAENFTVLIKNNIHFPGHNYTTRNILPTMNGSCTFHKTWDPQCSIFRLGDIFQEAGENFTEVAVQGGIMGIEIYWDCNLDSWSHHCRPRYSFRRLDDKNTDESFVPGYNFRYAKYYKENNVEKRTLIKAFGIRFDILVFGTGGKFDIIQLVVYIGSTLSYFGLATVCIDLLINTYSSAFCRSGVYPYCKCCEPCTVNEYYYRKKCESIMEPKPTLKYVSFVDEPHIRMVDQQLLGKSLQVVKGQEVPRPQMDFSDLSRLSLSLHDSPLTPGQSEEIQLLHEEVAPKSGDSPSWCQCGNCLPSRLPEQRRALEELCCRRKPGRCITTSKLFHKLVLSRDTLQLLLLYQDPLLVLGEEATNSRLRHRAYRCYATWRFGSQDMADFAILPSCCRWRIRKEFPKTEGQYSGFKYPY
# [2] = molecular target: T1, P2X purinoceptor 7 (Mus musculus); assay: Antagonist activity at P2X7R in Swiss Webster mouse peritoneal macrophages assessed as inhibition of propidium iodide uptake preincubated for 10 mins propidium iodide addition measured after 5 mins by fluorescence microscopic analysis
# P2X purinoceptor 7 = molecular target: T2, P2X purinoceptor 7 (Homo sapiens, UniProt Q99572); assay: Antagonist activity at human P2X7R expressed in HEK293 cells assessed as inhibition of ATP-induced […] uptake preincubated for 5 mins followed by ATP induction and measured after 25 mins by fluorescence assay; format: cell-based
# T2 sequence (Q99572 whole entry): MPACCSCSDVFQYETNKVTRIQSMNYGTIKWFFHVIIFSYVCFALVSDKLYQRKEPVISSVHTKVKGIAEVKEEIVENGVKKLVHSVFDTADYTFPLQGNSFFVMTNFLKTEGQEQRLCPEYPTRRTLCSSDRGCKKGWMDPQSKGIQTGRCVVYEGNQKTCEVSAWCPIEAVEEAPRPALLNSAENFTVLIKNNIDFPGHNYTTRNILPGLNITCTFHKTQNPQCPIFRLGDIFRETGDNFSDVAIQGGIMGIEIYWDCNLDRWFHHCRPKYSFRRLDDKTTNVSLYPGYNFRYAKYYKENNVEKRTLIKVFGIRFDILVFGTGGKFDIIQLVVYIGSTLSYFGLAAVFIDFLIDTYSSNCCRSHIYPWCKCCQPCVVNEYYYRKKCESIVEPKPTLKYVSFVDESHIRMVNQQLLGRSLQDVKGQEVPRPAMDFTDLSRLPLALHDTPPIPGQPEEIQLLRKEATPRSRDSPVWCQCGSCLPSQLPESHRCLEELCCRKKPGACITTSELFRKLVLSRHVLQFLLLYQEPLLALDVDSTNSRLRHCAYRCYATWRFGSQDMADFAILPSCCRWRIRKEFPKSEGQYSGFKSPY
# [3] = Octanol-PBS distribution co-efficient, log D of the compound at 25 mM at pH 7.4 after 2 hrs by shake flask method; format: physicochemical
# [4] = Apparent permeability across apical to basolateral side in human Caco2 cells at 100 uM measured after 60 mins by lucifer yellow staining based fluorescence assay; format: ADME, cell-based; details: Caco-2
# [5] = Intrinsic clearance in mouse liver microsomes assessed per mg protein at 1 uM measured in presence of NADPH; format: ADME, Microsome; details: read-out: CLH
# [6] = Intrinsic clearance in human liver microsomes assessed per mg protein at 1 uM measured in presence of NADPH; format: ADME, Microsome; details: read-out: CLH
SMILES,inhibition [1],inhibition [2],IC50 (P2X purinoceptor 7) [nM],"logD at 2 h, 25000 µM [3]","Papp A→B at 1 h, 100 µM [4] [×10⁻⁶ cm/s]",microsomal CLint at 1 µM [5] [µL/min/mg],microsomal CLint at 1 µM [6] [µL/min/mg],Activity (Peritoneal macrophage)
CCC(C)(O)c1cn(C2=CC(=O)c3cccc(O)c3C2=O)nn1 (stereo unspecified),inactive,inactive,–,–,–,–,–,Non-Toxic
CC(C)CC(C)(O)c1cn(C2=CC(=O)c3cccc(O)c3C2=O)nn1 (stereo unspecified),inactive,inactive,–,–,–,–,–,Non-Toxic
O=C1C=C(n2cc(CCCCl)nn2)C(=O)c2c(O)cccc21,Active,inactive,103,-0.42,41.6,3.1,1.2,Non-Toxic
CCCc1cn(C2=CC(=O)c3cccc(O)c3C2=O)nn1,inactive,inactive,–,–,–,–,–,Toxic

# Now from value to compound, other results behind:
inhibition [1],inhibition [2],IC50 (P2X purinoceptor 7) [nM],"logD at 2 h, 25000 µM [3]","Papp A→B at 1 h, 100 µM [4] [×10⁻⁶ cm/s]",microsomal CLint at 1 µM [5] [µL/min/mg],microsomal CLint at 1 µM [6] [µL/min/mg],SMILES,Activity (Peritoneal macrophage)
Active,inactive,750,–,–,–,–,COc1ccc(CC(=O)NC(N/C(=N/C#N)Nc2cccc3ncccc23)C(C)(C)C)cc1OC (stereo unspecified),Non-Toxic
Active,inactive,230,-1.24,71.8,40.6,46.1,CCCCc1cn(C2=CC(=O)c3cccc(O)c3C2=O)nn1,Non-Toxic
inactive,inactive,–,–,–,–,–,O=C1C=C(n2cc(-c3ccccc3)nn2)C(=O)c2c(O)cccc21,Toxic
Active,inactive,1370,–,–,–,–,CCOc1ccc(Nc2ccc(/C(=C3C=C/C(=[N+](/CC)Cc4cccc(S(=O)(=O)[O-])c4)C=C/3C)c3ccc(N(CC)Cc4cccc(S(=O)(=O)[O-])c4)cc3C)cc2)cc1.[Na+] [BRILLIANT BLUE G],Non-Toxic
